The conditions of series [1]: cited from earlier work.
Series [2] concerns the target T1, synthetic Aβ 1-40 (Homo sapiens, UniProt P05067).
T1 construct: using synthetic Aβ 1-40 in 2.7 nM of
Briefly: Competition binding assay ([3H]PIB as radioligand). How it is done: Competition binding was performed in 384-well FB filter plates using synthetic Aβ 1-40 in 2.7 nM of [^3H]PIB (or another ^3H-labeled radioligand when so mentioned) in phosphate buffer at pH 7.5, by adding various concentrations of non-radioactive compounds originally dissolved in DMSO. The binding mixture was incubated for 30 min at room temperature, followed by vacuum filtration, and subsequentially by washing twice with 1% Triton-X100. Scintillation fluid was thereafter added to the collected Aβ 1-40 on the filter plate, and the activity of the bound remaining radioligand ([^3H]PIB or another ^3H-labeled radioligand) was measured using 1450 Microbeta from PerkinElmer (FIG. 1). Specific binding was determined according to the competion binding assay described herein. The determined IC50's in the competion binding assays (using [^3H]PIB as radioligand) of 5 compounds of the present invention are shown in Table 2.

For series [3], the target named is T2, human synthetic Aβ 1-40 fibrils (Homo sapiens, UniProt P05067).
T2 construct: human synthetic Aβ 1-40 fibrils
Briefly: Saturation binding experiments. The conditions noted are these: amyloid Aβ 1-40 fibrils in vitro, AVG; for Kd: two site binding. As to the method:
Saturation binding experiments were performed in 96-well polypropylene deep well plates. 2 μM human synthetic Aβ 1-40 fibrils in phosphate buffer pH 7.5, or buffer alone as control, were incubated with increasing concentration of a ^3H-labeled radioligand of the present invention for 1 hr at room temperature. The radioactivity still bound to the Aβ 1-40 fibrils at the end of the incubation was detected on FB filters after filtration in a Brandel apparatus using a wash buffer containing 0.1% Triton-X100. Results were corrected for nonspecific, nondisplaceable binding defined as the number of counts from wells without Aβ 1-40 fibrils (replaced with assay buffer).

[4] abbreviates: [3H]PIB as radioligand, Table 2.

Structures are written as SMILES. Where two headings read alike, the source gives them in different places.

Broadly, the IC50 is the point on the concentration scale where inhibition reaches its midpoint. Low readings indicate greater potency in that assay, high ones weaker potency in that assay. For orientation: Kd means the free concentration of one partner at which half of the binding sites on the other are occupied at equilibrium, for simple one-to-one binding.

T2 sequence (P05067 672-711 limits assumed): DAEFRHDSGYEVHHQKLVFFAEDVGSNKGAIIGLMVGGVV
T1 sequence (P05067 672-711 limits assumed): as above

Consider `CN(C)c1ccc(-c2nc3ccc(I)cc3o2)cc1` [IBOX], for which, in series [1] (compared with TZDM), the brain entrance entry is recorded as “relatively higher brain entrance”. Besides, the “clearance from normal brain tissue” value in series [1] (compared with related analogues) is “relatively more rapid clearance from normal brain tissue”.
In series [2] (setting [4]), `COc1ccc2nc(-c3ccc(N(C)C)nc3)oc2c1` [Example 1, 5-(6-Methoxy-1,3-benzoxazol-2-yl)-N,N-dimethylpyridin-2-amine] displayed an IC50 of 204 nM.
`CNc1ccc(-c2nc3ccc(O)cc3o2)cn1` [Example 5, 2-[6-(Methylamino)pyridin-3-yl]-1,3-benzoxazol-6-ol]: the IC50 in series [2] (setting [4]) came out at 182 nM; in series [2] (amyloid Aβ 1-40 fibrils in vitro, AVG), 182 nM. The “Bmax 1” value in series [3] (site 1) was determined as 0.9099 pmol/nmol Ab. Further, in series [3] (site 2), the “Bmax 2” value is given as 4.298 pmol/nmol Ab. Further, the Kd in series [3] (site 1, read-out: Kd 1) is 5.33 nM; in series [3] (site 2, read-out: Kd 2) it was 63.3 nM.
`CNc1ccc(-c2nc3ccc(OC)cc3o2)cn1` [Example 3, 5-(6-Methoxy-1,3-benzoxazol-2-yl)-N-methylpyridin-2-amine]: the IC50 in series [2] (setting [4]) came out at 186 nM.
Consider `CN(C)c1ccc(-c2nc3ccc(O)cc3o2)cn1` [Example 2, 2-[6-(Dimethylamino)pyridin-3-yl]-1,3-benzoxazol-6-ol], for which, in series [2] (setting [4]), the IC50 worked out at 85 nM.
In the case of `COc1ccc2nc(-c3ccc(N(C)C(C)=O)nc3)oc2c1` [Example 4, N-[5-(6-Methoxy-1,3-benzoxazol-2-yl)pyridin-2-yl]-N-methylacetamide], in series [2] (setting [4]), the IC50 is 15700 nM.

The values are drawn from patent publication US7670591B2, “Heteroaryl substituted benzoxazoles” (AstraZeneca AB, priority 2006, dated 2010).
